Data reported in patent publication US20250034216A1, “STEREOSELECTIVE COVALENT LIGANDS FOR ONCOGENIC AND IMMUNOLOGICAL PROTEINS” (The Scripps Research Institute, priority 2021, published 2025).

Key:
Experiment in all cases: IA-DTB cysteine engagement
Type in all cases: binding
Details in all cases: 22Rv1 cells, 20 μM probe, 1 h, relative to DMSO
SLC25A20_C89 = target: T1, SLC25A20_C89 (Homo sapiens, UniProt O43772)
T1 construct: endogenous in cells; host or cells: 22Rv1
T1 sequence (O43772 1-301): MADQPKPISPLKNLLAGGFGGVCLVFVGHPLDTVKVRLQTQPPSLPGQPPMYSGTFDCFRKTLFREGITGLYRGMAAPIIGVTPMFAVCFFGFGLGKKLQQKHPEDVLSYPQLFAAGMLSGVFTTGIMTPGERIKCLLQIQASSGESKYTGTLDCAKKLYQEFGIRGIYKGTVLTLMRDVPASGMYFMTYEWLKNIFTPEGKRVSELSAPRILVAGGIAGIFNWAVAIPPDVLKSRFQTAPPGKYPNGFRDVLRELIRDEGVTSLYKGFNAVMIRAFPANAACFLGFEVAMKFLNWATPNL
Summary of the method: (§1)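 First, cells are exposed to electrophilic probes in situ. Next, lysates are labeled with IA-DTB (1 h, ambient temperature), reduced, alkylated and trypsin-digested. Then, IA-DTB peptides are enriched on streptavidin, TMT-labeled and analyzed, with ratios taken against DMSO channels.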

LMF2_C659 = target: T2, LMF2_C659 (Homo sapiens, UniProt Q9BU23)
T2 construct: endogenous in cells; host or cells: 22Rv1
T2 sequence (Q9BU23 1-707): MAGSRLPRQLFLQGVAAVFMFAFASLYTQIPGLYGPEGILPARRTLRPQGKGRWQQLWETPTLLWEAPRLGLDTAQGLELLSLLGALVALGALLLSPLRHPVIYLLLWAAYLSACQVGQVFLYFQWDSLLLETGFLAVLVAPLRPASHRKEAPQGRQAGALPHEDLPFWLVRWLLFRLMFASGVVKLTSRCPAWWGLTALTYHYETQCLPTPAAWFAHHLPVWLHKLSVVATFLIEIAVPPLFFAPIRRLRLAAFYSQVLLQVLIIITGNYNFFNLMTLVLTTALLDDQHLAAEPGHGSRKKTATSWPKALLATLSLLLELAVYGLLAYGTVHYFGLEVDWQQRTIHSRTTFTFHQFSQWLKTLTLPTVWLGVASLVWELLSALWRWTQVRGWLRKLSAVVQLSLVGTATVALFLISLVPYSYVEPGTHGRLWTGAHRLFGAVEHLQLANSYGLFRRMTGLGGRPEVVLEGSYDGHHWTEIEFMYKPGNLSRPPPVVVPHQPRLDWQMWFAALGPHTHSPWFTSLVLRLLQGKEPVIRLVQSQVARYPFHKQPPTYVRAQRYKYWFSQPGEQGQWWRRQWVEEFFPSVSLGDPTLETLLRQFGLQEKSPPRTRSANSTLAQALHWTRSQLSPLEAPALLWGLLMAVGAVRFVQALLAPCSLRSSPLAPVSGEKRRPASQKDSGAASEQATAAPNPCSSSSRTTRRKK
Summary of the method: as §1

TRMT61A_C209 = target: T3, TRMT61A_C209 (Homo sapiens, UniProt Q96FX7)
T3 construct: endogenous in cells; host or cells: 22Rv1
Summary of the method: as §1

T3 sequence (Q96FX7 whole entry): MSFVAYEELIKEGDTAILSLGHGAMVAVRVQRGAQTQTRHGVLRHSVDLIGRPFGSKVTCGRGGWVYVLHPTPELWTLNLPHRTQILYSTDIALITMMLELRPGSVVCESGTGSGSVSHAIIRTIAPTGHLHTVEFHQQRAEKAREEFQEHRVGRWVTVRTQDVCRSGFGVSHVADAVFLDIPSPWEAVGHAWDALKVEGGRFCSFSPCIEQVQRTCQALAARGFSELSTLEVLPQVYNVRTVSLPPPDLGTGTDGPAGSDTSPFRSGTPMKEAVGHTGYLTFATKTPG

| SMILES | % engagement SLC25A20_C89 (SLC25A20_C89) [%] | % engagement LMF2_C659 (LMF2_C659) [%] | % engagement TRMT61A_C209 (TRMT61A_C209) [%] |
| --- | --- | --- | --- |
| C=CC(=O)N1C[C@@H](c2ccc(Br)cc2)[C@H]1C(=O)Nc1cccc2cccnc12 [MY-1A, (2S,3R)-1-acryloyl-3-(4-bromophenyl)-N-(quinolin-8-yl)azetidine-2-carboxamide] | 9.5 | 66 | 40.75 |
| C=CC(=O)N1C[C@H](c2ccc(Br)cc2)[C@@H]1C(=O)Nc1cccc2cccnc12 [MY-1B, (2R,3S)-1-acryloyl-3-(4-bromophenyl)-N-(quinolin-8-yl)azetidine-2-carboxamide] | 94 | 65.75 | 67 |
| C=CC(=O)N1C[C@H](c2ccc(Br)cc2)[C@H]1C(=O)Nc1cccc2cccnc12 [MY-3A, (2S,3S)-1-acryloyl-3-(4-bromophenyl)-N-(quinolin-8-yl)azetidine-2-carboxamide] | 45 | 44.75 | 18.75 |
| C=CC(=O)N1C[C@H](c2ccc(Br)cc2)[C@H]1C(=O)Nc1cccc2cccnc12 [MY-3B, (2S,3S)-1-acryloyl-3-(4-bromophenyl)-N-(quinolin-8-yl)azetidine-2-carboxamide] | 91 | 69.25 | 56 |
